Assay results published in US4154837A, “(Aminoalkoxy-aryl)-substituted isoquinolinones and naphthydrinones and salts thereof, and hypotensive compositions and methods employing them” (Boehringer Ingelheim GmbH, priority 1977, dated 1979).
Where two headings read alike, the source gives them in different places.

Experiments:
in vivo = conditions: mouse, mice, observation period 14 days
Experimental: (3.) determination of acute toxicity
The acute toxicity of the test compounds was determined in mice (observation period: 14 days) after oral or intravenous administration. The LD50 was calculated from the percentage of the animals that dies during the observation period after administration of varying doses: […]

[1] = tested on: isolated guinea pig auricle; experiment: effect on the force of contraction and frequency of the isolated guinea pig auricle; conditions: Cavia porcellus, 37° C.; for inhibition at 30 µg/mL: 3.10^-5 gm/ml; for inhibition at 10 µg/mL: 10^-5 gm/ml; for inhibition at 3 µg/mL: 3.10^-6 gm/ml; for inhibition at 100 µg/mL: 10^-4 gm/ml
Experimental: (2.) effect on the force of contraction and frequency of the isolated guinea pig auricle
In spontaneously beating isolated auricles of guinea pigs, which were kept in carbogen-aerated ([…] +5% CO2) Krebs-Henseleit-solution at a temperature of 37° C., and at predetermined concentrations of the test compounds, the maximum developed tension (isometric force of contraction) and the frequency were measured: […]

[2] = tested on: blood circulation of dogs; experiment: Effect on blood circulation (arterial blood pressure, heart rate, contractility dp/dt max) in anesthetized dogs; assay type: in vivo; conditions: for Decrease of contractility, duration / inhibition in vivo at 1 mg/kg / inhibition in vivo at 0.25 mg/kg: left ventricle; for inhibition in vivo at 1 mg/kg / inhibition in vivo at 0.25 mg/kg: Canis lupus familiaris, iv, read-out: Decrease of contractility dp/dt max.
Experimental: (1.) Effect on blood circulation: The blood circulation tests were performed on dogs with a body weight of 19-30 kg under chloralose-urethane-nembutalanesthesia (54+270+10 mg/kg i.v.). After opening the thorax in the 4th left intercostal space, artificial respiration was applied to the animals with room air by means of an Harvard-Respirator. The arterial blood-pressure was measured in an arteria carotis with a Statham-transducer; the heart rate was measured electronically from the sequence of R-peaks of the electrocardiogram. The maximum rate of pressure increase (dp/dt max) in the left ventricle was measured by means of a Konigsberg pressure-receiver and a Grass differentiation amplifier. All parameters were recorded by means of a direct-writer. For inhibition of coagulation the animals were given 10 mgm/kg of potassium polyethylenesulfonate i.v. in 20% of polydiol. The test compounds were intravenously administered to 4-6 dogs per compound.

[3] = read-out: Decrease in frequency
[4] = read-out: Decrease in maximum force of contraction

| Compound | LD50 at 336 h (in vivo; iv) [mg/kg] | inhibition at 30 µg/mL [1, 3] [%] | inhibition at 30 µg/mL [1, 4] [%] | inhibition at 10 µg/mL [1, 3] [%] | inhibition at 10 µg/mL [1, 4] [%] | Decrease in heart rate ([2]; 1.0 mgm/kg i.v.) [beats/min] | Decrease in heart rate, duration ([2]; 1.0 mgm/kg i.v.) [min] | Effect on average arterial blood pressure ([2]; 1.0 mgm/kg i.v.) [mm Hg] | Effect on average arterial blood pressure, duration ([2]; 1.0 mgm/kg i.v.) [min] | Decrease of contractility, duration ([2]; 1.0 mgm/kg i.v.) [min] | inhibition in vivo at 1 mg/kg ([2]; 1.0 mgm/kg i.v.) [%] | further results |
| --- | --- | --- | --- | --- | --- | --- | --- | --- | --- | --- | --- | --- |
| COc1ccc2cc(-c3ccc(OCC(O)CNC(C)(C)C)cc3)n(C)c(=O)c2c1 (stereo not drawn) [A, 2-methyl-3-[4-(2-hydroxy-3-tert. butylamino-propoxy)-phenyl]-7-methoxy-isoquinolin-1 (2H)-one] | 62 | 30 | 82 | 23 | 50 | 29 ± 15 | 36 | -20 ± 2 | 50 | 44 | 50 ± 10 | LD50 at 336 h (in vivo; po): 460 mg/kg |
| COc1ccc2cc(-c3ccccc3OCC(O)CNC(C)C)n(C)c(=O)c2c1.O=C(O)C(=O)O (stereo not drawn) [B, 2-methyl-3-[2-(2-hydroxy-3-isopropylamino-propoxy)-phenyl]-7-methoxy-isoquinolin-1 (2H)-one-oxalate] | 47 |  |  |  |  | 19 ± 6 | 50 | -24 ± 2 | 41 | 47 | 51 ± 7 |  |
| COc1ccc(-c2cc3ccc(OC)cc3c(=O)n2C)c(OCC(O)CNC(C)C)c1.O=C(O)C(=O)O (stereo not drawn) [C, 2-methyl-3-[2-(2-hydroxy-3-isopropylamino-propoxy)-4-methoxy-phenyl]-7-methoxy-isoquinolin-1 (2H)-one-oxalate] | 50 |  |  | 29 | 29 | 38 ± 2 | 50 | -17 ± 3 | 40 | 50 | 53 ± 6 | LD50 at 336 h (in vivo; po): 500 mg/kg; inhibition at 3 µg/mL [1, 3]: 15%; inhibition at 3 µg/mL [1, 4]: 17% |
| COc1ccc(-c2cc3ccc(OC)cc3c(=O)n2C)c(OCC(O)CNC(C)(C)C)c1 (stereo not drawn) [D, 2-methyl-3-[2-(2-hydroxy-3-tert. butylamino-propoxy)-4-methoxy-phenyl]-7-methyoxy-isoquinoline-1 (2H)-one-oxalate] |  | 40 | 64 |  |  |  |  |  |  |  |  | Decrease in heart rate ([2]; 0.25 mgm/kg i.v.): 15 ± 5 beats/min; Decrease in heart rate, duration ([2]; 0.25 mgm/kg i.v.): 27 min; Effect on average arterial blood pressure ([2]; 0.25 mgm/kg i.v.): -6 ± 3 mm Hg; Effect on average arterial blood pressure, duration ([2]; 0.25 mgm/kg i.v.): 24 min; Decrease of contractility, duration ([2]; 0.25 mgm/kg i.v.): 28 min; inhibition in vivo at 0.25 mg/kg ([2]; 0.25 mgm/kg i.v.): 36 ± 13% |
| COc1cc2cc(-c3ccc(OCC(O)CNC(C)(C)C)cc3)n(C)c(=O)c2cc1OC (stereo not drawn) [E, 2-methyl-3-[4-(2-hydroxy-3-tert. butylamino-propoxy)-phenyl]-6,7-dimethoxy-isoquinolin-1 (2H)-one] |  | 31 | 54 |  |  | 25 ± 6 | 51 | -18 ± 11 | 11 | 51 | 52 ± 8 | inhibition at 100 µg/mL [1, 3]: 46%; inhibition at 100 µg/mL [1, 4]: 72% |
| COc1cc2cc(-c3ccc(OCC(O)CNC(C)C)cc3)n(C)c(=O)c2cc1OC (stereo not drawn) [F, 2-methyl-3-[4-(2-hydroxy-3-isopropylamino-propoxy)-phenyl]-6,7-dimethoxy-isoquinolin-1 (2H)-one] |  | 29 | 43 | 22 | 30 | 12 ± 6 | 31 | -7 ± 3 | 17 | 43 | 33 ± 6 |  |
| COc1ccc2cc(-c3ccc(OCC(O)CNC(C)C)c(OC)c3)n(C)c(=O)c2c1 (stereo not drawn) [G, 2-methyl-3-[3-methoxy-4-(2-hydroxy-3-isopropylamino-propoxy)-phenyl]-7-methoxy-isoquinolin-1 (2H)-one] |  | 37 | 48 | 22 | 35 |  |  |  |  |  |  | Decrease in heart rate ([2]; 0.25 mgm/kg i.v.): 37 ± 5 beats/min; Decrease in heart rate, duration ([2]; 0.25 mgm/kg i.v.): 54 min; Effect on average arterial blood pressure ([2]; 0.25 mgm/kg i.v.): -3 ± 2 mm Hg; Effect on average arterial blood pressure, duration ([2]; 0.25 mgm/kg i.v.): 20 min; Decrease of contractility, duration ([2]; 0.25 mgm/kg i.v.): 48 min; inhibition in vivo at 0.25 mg/kg ([2]; 0.25 mgm/kg i.v.): 48 ± 6% |
| COc1ccc2cc(CCc3ccc(OCC(O)CNC(C)C)cc3)n(C)c(=O)c2c1 (stereo not drawn) [H, 2-methyl-3-[4-(2-hydroxy-3-isopropylamino-propoxy)-phenethyl]-7-methoxy-isoquinolin-1 (2H)-one] |  |  |  |  |  | 34 ± 10 | 47 | -25 ± 15 | 20 | 47 | 53 ± 13 |  |
